{"source": "paper PMC6783499", "about": "“Heteroglycoclusters With Dual Nanomolar Affinities for the Lectins LecA and LecB From Pseudomonas aeruginosa” (Frontiers in Chemistry, 2019)", "key": {"LecA": {"target": "T1, LecA (Pseudomonas aeruginosa, UniProt Q05097)", "T1 construct": "made in house; host or cells: Escherichia coli BL21(DE3)", "T1 sequence (Q05097 whole entry)": "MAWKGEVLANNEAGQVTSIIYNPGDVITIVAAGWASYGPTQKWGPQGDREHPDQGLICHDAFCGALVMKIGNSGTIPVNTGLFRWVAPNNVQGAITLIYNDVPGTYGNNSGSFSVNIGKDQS", "assay": "biochemical", "format": "binding", "procedure": "(§1) The resulting hGCs were tested in solution with lectins by Isothermal Titration Calorimetry (Table 1) and their binding properties were compared with homoclusters 15–20 (Berthet et al., [2013]; Thomas et al., [2015b]) displaying either 4 and 16 βGal or αFuc units attached with an oxime or a triazole linker (Figure 3). […] Experiments were performed in direct injection mode (i.e., ligand in syringe and protein in cell) to minimize aggregation problems.\n(§2) All chemical reagents were purchased from Aldrich (Saint Quentin Fallavier, France) or Acros (Noisy-Le-Grand, France). All protected amino acids and Fmoc-Gly-Sasrin® resin was obtained from Advanced ChemTech Europe (Brussels, Belgium). For peptides and glycopeptides, analytical RP-HPLC was performed on Waters system equipped with a Waters 2695 separations module and a Waters 2487 Dual Absorbance UV/Visible Detector. Analysis was carried out at 1.0 mL/min (EC 125/3 nucleosil 300-5 C18) with UV monitoring at 214 nm and 250 nm using a linear A–B gradient (buffer A: 0.09% CF3CO2H in water; buffer B: 0.09% CF3CO2H in 90% acetonitrile). Purifications were carried out at 22.0 mL/min (VP 250/21 nucleosil 100-7 C18) with UV monitoring at 214 nm and 250 nm using a linear A–B gradient. HRMS and ESI-MS and HRMS spectra of peptides and glycopeptides were measured on an Esquire 3000 spectrometer from Bruker. Lectins LecA and LecB were produced in recombinant form in Escherichia coli BL21(DE3) as described previously (Mitchell et al., [2005]; Blanchard et al., [2008]).\nOther compounds were assayed with a VP-ITC isothermal titration calorimeter (Microcal). The experiments were carried out at 25°C. All glycocompounds and lectins LecB and LecA were dissolved in the same buffer composed of 20 mM Tris with 100 mM NaCl and 0.1 mM CaCl2 at pH 7.5. For PEAQ-ITC, the lectins were placed in the microcalorimeter cell (200 μL) at concentrations varying from 35 to 70 μM. […] For VP-ITC, the microcalorimeter cell (1.447 mL) contained the lectins with concentrations between 30 and 100 μM. […] The experimental data were fitted to a theoretical titration curve using the Microcal PEAQ-ITC analysis software, with ΔH (enthalpy change), Ka (association constant), and N (number of binding sites per monomer) as adjustable parameters. Dissociation constant (Kd), free energy change (ΔG), and entropy contributions (TΔS) were derived from the previous ones. Two or three independent titrations were performed for each ligand tested."}, "LecB": {"target": "T2, LecB (Pseudomonas aeruginosa, UniProt Q9HYN5)", "T2 construct": "made in house; host or cells: Escherichia coli BL21(DE3)", "T2 sequence (Q9HYN5 entry or part of it)": "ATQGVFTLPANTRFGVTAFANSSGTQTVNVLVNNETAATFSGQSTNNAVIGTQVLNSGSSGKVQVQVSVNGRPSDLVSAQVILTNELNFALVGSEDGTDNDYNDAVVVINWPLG", "assay": "biochemical", "format": "binding", "procedure": "as §1, §2\nOther compounds were assayed with a VP-ITC isothermal titration calorimeter (Microcal). The experiments were carried out at 25°C. All glycocompounds and lectins LecB and LecA were dissolved in the same buffer composed of 20 mM Tris with 100 mM NaCl and 0.1 mM CaCl2 at pH 7.5. For PEAQ-ITC, the lectins were placed in the microcalorimeter cell (200 μL) at concentrations varying from 35 to 70 μM. […] For VP-ITC, the microcalorimeter cell (1.447 mL) contained the lectins with concentrations between 30 and 100 μM. A total of 30 injections of 10 μL were performed intervals of 5 min while stirring at 310 rpm with glycoclusters concentrations varying from […]. The experimental data were fitted to a theoretical titration curve using the Microcal PEAQ-ITC analysis software, with ΔH (enthalpy change), Ka (association constant), and N (number of binding sites per monomer) as adjustable parameters. Dissociation constant (Kd), free energy change (ΔG), and entropy contributions (TΔS) were derived from the previous ones. Two or three independent titrations were performed for each ligand tested."}, "[1]": {"details": "LecA, ITC, 25°C, per mole of glycocluster"}, "[2]": {"details": "ITC, 25°C, per mole of glycocluster"}}, "data": [{"smiles": "C[C@@H]1NC(=O)[C@H](CCCCNC(=O)/C=N/O[C@@H]2O[C@@H](C)[C@@H](O)[C@@H](O)[C@@H]2O)NC(=O)CNC(=O)[C@@H]2CCCN2C(=O)[C@H](CCCCNC(=O)/C=N/O[C@@H]2O[C@@H](C)[C@@H](O)[C@@H](O)[C@@H]2O)NC(=O)[C@H](CCCCNC(=O)CO/N=C/C(=O)NCCCC[C@@H]2NC(=O)CNC(=O)[C@@H]3CCCN3C(=O)[C@H](CCCCNC(=O)/C=N/OCC(=O)NCCCC[C@@H]3NC(=O)[C@H](CCCCNC(=O)/C=N/O[C@@H]4O[C@@H](C)[C@@H](O)[C@@H](O)[C@@H]4O)NC(=O)CNC(=O)[C@@H]4CCCN4C(=O)[C@H](CCCCNC(=O)/C=N/O[C@@H]4O[C@@H](C)[C@@H](O)[C@@H](O)[C@@H]4O)NC(=O)[C@H](C)NC(=O)[C@H](CCCCNC(=O)/C=N/O[C@@H]4O[C@@H](C)[C@@H](O)[C@@H](O)[C@@H]4O)NC(=O)CNC(=O)[C@@H]4CCCN4C(=O)[C@H](CCCCNC(=O)/C=N/O[C@@H]4O[C@@H](C)[C@@H](O)[C@@H](O)[C@@H]4O)NC3=O)NC(=O)[C@H](CCCCN)NC(=O)[C@H](CCCCNC(=O)CO/N=C/C(=O)NCCCC[C@@H]3NC(=O)[C@H](CCCCn4cc(CO[C@@H]5O[C@H](CO)[C@H](O)[C@H](O)[C@H]5O)nn4)NC(=O)CNC(=O)[C@@H]4CCCN4C(=O)[C@H](CCCCn4cc(CO[C@@H]5O[C@H](CO)[C@H](O)[C@H](O)[C@H]5O)nn4)NC(=O)[C@H](C)NC(=O)[C@H](CCCCn4cc(CO[C@@H]5O[C@H](CO)[C@H](O)[C@H](O)[C@H]5O)nn4)NC(=O)CNC(=O)[C@@H]4CCCN4C(=O)[C@H](CCCCn4cc(CO[C@@H]5O[C@H](CO)[C@H](O)[C@H](O)[C@H]5O)nn4)NC3=O)NC(=O)CNC(=O)[C@@H]3CCCN3C(=O)[C@H](CCCCNC(=O)CO/N=C/C(=O)NCCCC[C@@H]3NC(=O)[C@H](CCCCn4cc(CO[C@@H]5O[C@H](CO)[C@H](O)[C@H](O)[C@H]5O)nn4)NC(=O)CNC(=O)[C@@H]4CCCN4C(=O)[C@H](CCCCn4cc(CO[C@@H]5O[C@H](CO)[C@H](O)[C@H](O)[C@H]5O)nn4)NC(=O)[C@H](C)NC(=O)[C@H](CCCCn4cc(CO[C@@H]5O[C@H](CO)[C@H](O)[C@H](O)[C@H]5O)nn4)NC(=O)CNC(=O)[C@@H]4CCCN4C(=O)[C@H](CCCCn4cc(CO[C@@H]5O[C@H](CO)[C@H](O)[C@H](O)[C@H]5O)nn4)NC3=O)NC(=O)[C@H](C)NC2=O)NC(=O)[C@H](CCCCNC(=O)/C=N/O[C@@H]2O[C@@H](C)[C@@H](O)[C@@H](O)[C@@H]2O)NC(=O)CNC(=O)[C@@H]2CCCN2C(=O)[C@H](CCCCNC(=O)/C=N/O[C@@H]2O[C@@H](C)[C@@H](O)[C@@H](O)[C@@H]2O)NC1=O", "note": "[Compound 11]", "values": [{"measurement": "Kd", "setting": "LecA", "result": "34 ± 7", "unit": "nM"}, {"measurement": "–ΔH (binding enthalpy)", "setting": "LecA; LecA, ITC", "result": "51.6 to 58.1", "unit": "kcal/mol"}, {"measurement": "n (stoichiometry, glycocluster molecules per lectin monomer)", "setting": "LecA; LecA, ITC, 25°C, pH 7.5", "result": 0.16}, {"measurement": "–ΔG", "setting": "LecA; [1]", "result": 10.2, "unit": "kcal/mol"}, {"measurement": "–ΔH", "setting": "LecA; [1]", "result": "55.59 ± 0.48", "unit": "kcal/mol"}, {"measurement": "−TΔS", "setting": "LecA; [1]", "result": 45.39, "unit": "kcal/mol"}, {"measurement": "binding to LecA in words", "setting": "LecA; LecA, abstract", "result": "maintain their binding potency"}, {"measurement": "α (relative potency compared to the monovalent compound)", "setting": "LecA; LecA, relative to βGal-OMe", "result": "4,412"}, {"measurement": "β (relative potency per sugar unit)", "setting": "LecA; LecA, relative to βGal-OMe", "result": 551}, {"measurement": "–ΔH (binding enthalpy)", "setting": "LecB; ITC", "result": 50.7, "unit": "kcal/mol"}, {"measurement": "n (stoichiometry, glycocluster molecules per lectin monomer)", "setting": "LecB; ITC, 25°C, pH 7.5", "result": 0.10}, {"measurement": "–ΔG", "setting": "LecB; [2]", "result": 9.61, "unit": "kcal/mol"}, {"measurement": "–ΔH", "setting": "LecB; [2]", "result": "50.69 ± 1.4", "unit": "kcal/mol"}, {"measurement": "−TΔS", "setting": "LecB; [2]", "result": 41.09, "unit": "kcal/mol"}, {"measurement": "Kd", "setting": "LecB; Kd, ITC, 25°C, 20 mM Tris, 100 mM NaCl, 0.1 mM CaCl2, pH 7.5, ligand in syringe", "result": "92 ± 14", "unit": "nM"}, {"measurement": "binding to LecB in words", "setting": "LecB; abstract", "result": "maintain their binding potency"}, {"measurement": "α (relative potency compared to the monovalent compound)", "setting": "LecB; relative to αFuc-OMe", "result": 4.7}]}]}
